Laboratory results as given in article PMC10458458, “Characterization of Anticancer Effects of the Analogs of DJ4, a Novel Selective Inhibitor of ROCK and MRCK Kinases” (Pharmaceuticals, 2023).

Tests used:
A549 lung cancer cells = test: Cell cycle analysis (propidium iodide, flow cytometry); assay type: cell-based, human; details: A549, serum-starved, 24 h (vehicle 1%)
Procedure: Since DJ4 inhibits phosphorylation of MLC, we hypothesized that DJ4-treated cells are unable to complete cell division and arrest in G2/M phase of the cell cycle. To test this hypothesis, A549 lung cancer cells were synchronized in the G1 phase by serum-starvation for 24 h. After serum replenishment, cells were further treated with 2.5 µM, 5 µM, and 10 µM DJ-4 for 16-, 24-, and 48 h (Figure 3A). Before treatment with DJ4 (time zero), about 80% of cells were in the G1 phase, 20% in the G2/M phase, and essentially none in the S phase. In vehicle treated control cells, there were minimal cells in the G2/M phase at both 24 h (1%) and 48 h (8%). […] At 48 h, cells remained arrested in the G2/M phase, but also, there was an increase in the sub-G1 cell population indicating apoptotic cells.
Figure 3 DJ4 arrests A549 lung cancer cells in G2/M phase and induces apoptotic cell death in NSCLC and breast cancer cells. (A). A549 cells were serum-starved for 24 h and treated for 16 h, 24 h, and 48 h with indicated concentrations. Propidium iodide stained cells were analyzed for DNA content by flow cytometry. The cell cycle graphs indicate distribution of cells in the G1, S, and G2/M phases of cell cycle. Sub-G1 cell population indicates apoptotic cells. (B). Annexin V staining of A549 cells. The cells were treated with indicated concentrations and durations. Percent annexin V + cells were analyzed using Muse^TM cell analyzer. Error bars indicate SEM. n = 2. (C). Analysis of annexin V + ve and mitochondrial membrane depolarized cells. MDA-MB-231 cells were treated for 48 h at the indicated concentrations. Staurosporin (2.5 µM) was used as a positive control. Error bars indicate SEM. n = 2. * p < 0.05. […] These are best readings and their digits are not certain: DMSO 7 and 14; DJ4 1.25 μM 10 and 22; DJ4 2.5 μM 23 and 40; Staurosporin 12 and 40 / Panel B, 24 h: the ** is read as belonging to the 5 μM bar (10), not the 2.5 μM bar (8); this is not fully certain […]

CDK14 = target: T1, CDK14 (Homo sapiens, UniProt O94921); test: KINOMEscan competition binding assay; details: CDK14, 10 µM
T1 construct: purchased DiscoverX Corporation (Lead Hunter Discovery Services, KINOMEscan)
T1 sequence (O94921 whole entry): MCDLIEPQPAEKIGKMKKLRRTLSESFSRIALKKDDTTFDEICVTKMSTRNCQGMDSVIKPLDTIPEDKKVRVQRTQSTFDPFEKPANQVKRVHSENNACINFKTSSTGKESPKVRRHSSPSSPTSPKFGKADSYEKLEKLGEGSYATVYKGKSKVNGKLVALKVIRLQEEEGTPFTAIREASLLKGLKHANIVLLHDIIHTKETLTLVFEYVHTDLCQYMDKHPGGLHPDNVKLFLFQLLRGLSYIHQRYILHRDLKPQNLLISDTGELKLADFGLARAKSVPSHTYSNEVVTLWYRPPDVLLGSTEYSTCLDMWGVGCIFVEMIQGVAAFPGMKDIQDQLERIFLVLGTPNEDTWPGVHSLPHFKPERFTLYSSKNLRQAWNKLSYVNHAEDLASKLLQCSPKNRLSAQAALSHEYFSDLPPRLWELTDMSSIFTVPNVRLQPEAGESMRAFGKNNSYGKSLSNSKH
Text: (§1) To examine specificity of DJ4 to different human kinases, we performed a KINOMEscan profiling assay (DiscoverX, Fremont, CA, USA). The KINOMEscan assay consists of a panel of more than 480 kinases of different classes (TK/TKL/STE/CK1/AGC/CAMK/CMGC/others), including clinically relevant mutants, atypical kinases, lipid, and pathogen kinases. […] However, we also recognized the limitations of DJ4 that preclude its clinical development and the need for further optimization of the DJ4 chemotype.
(§2) The KINOMEscan®, in vitro competition binding assay, was performed by Lead Hunter Discovery Services (DiscoverX Corporation, Fremont, CA, USA) to determine the kinase specificity of DJ4, a novel kinase inhibitor [19, 44]. The KINOMEscan® panel consists of more than 480 kinases, including clinically relevant mutants, lipid, atypical, and pathogen kinases, plus a growing panel of activation-state specific assays. The primary screen was performed using a single concentration of 10 µM, and the results for DJ4 binding interactions are reported as percent of control (%Ctrl). The %Ctrl is calculated as follows: [(DJ4 signal-positive control signal)/(negative control DMSO signal-positive control signal)] x […]. The human kinome tree annotation for DJ4 is plotted with Reaction Biology’s Kinase Mapper and KinMap web interface tool http://kinhub.org/kinmap (accessed on 09 January 2023).

CDK7 = target: T2, CDK7 (Homo sapiens, UniProt P50613); test: KINOMEscan competition binding assay; details: CDK7, 10 µM
T2 construct: purchased DiscoverX Corporation (Lead Hunter Discovery Services, KINOMEscan)
T2 sequence (P50613 whole entry): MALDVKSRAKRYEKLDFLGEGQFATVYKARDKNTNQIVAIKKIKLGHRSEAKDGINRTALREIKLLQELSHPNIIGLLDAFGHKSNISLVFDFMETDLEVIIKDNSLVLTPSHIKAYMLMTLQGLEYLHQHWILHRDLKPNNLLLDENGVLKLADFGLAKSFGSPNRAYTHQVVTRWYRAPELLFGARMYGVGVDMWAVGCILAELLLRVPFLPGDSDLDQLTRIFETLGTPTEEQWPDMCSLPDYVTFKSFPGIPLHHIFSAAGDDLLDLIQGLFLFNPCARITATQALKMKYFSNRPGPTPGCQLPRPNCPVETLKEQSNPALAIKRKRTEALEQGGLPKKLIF
Text: as §1, §2

MRCK2 = target: T3, MRCK2 (Homo sapiens, UniProt Q9Y5S2); test: KINOMEscan competition binding assay; details: MRCK2, 10 µM
T3 construct: purchased DiscoverX Corporation (Lead Hunter Discovery Services, KINOMEscan)
T3 sequence (Q9Y5S2 whole entry): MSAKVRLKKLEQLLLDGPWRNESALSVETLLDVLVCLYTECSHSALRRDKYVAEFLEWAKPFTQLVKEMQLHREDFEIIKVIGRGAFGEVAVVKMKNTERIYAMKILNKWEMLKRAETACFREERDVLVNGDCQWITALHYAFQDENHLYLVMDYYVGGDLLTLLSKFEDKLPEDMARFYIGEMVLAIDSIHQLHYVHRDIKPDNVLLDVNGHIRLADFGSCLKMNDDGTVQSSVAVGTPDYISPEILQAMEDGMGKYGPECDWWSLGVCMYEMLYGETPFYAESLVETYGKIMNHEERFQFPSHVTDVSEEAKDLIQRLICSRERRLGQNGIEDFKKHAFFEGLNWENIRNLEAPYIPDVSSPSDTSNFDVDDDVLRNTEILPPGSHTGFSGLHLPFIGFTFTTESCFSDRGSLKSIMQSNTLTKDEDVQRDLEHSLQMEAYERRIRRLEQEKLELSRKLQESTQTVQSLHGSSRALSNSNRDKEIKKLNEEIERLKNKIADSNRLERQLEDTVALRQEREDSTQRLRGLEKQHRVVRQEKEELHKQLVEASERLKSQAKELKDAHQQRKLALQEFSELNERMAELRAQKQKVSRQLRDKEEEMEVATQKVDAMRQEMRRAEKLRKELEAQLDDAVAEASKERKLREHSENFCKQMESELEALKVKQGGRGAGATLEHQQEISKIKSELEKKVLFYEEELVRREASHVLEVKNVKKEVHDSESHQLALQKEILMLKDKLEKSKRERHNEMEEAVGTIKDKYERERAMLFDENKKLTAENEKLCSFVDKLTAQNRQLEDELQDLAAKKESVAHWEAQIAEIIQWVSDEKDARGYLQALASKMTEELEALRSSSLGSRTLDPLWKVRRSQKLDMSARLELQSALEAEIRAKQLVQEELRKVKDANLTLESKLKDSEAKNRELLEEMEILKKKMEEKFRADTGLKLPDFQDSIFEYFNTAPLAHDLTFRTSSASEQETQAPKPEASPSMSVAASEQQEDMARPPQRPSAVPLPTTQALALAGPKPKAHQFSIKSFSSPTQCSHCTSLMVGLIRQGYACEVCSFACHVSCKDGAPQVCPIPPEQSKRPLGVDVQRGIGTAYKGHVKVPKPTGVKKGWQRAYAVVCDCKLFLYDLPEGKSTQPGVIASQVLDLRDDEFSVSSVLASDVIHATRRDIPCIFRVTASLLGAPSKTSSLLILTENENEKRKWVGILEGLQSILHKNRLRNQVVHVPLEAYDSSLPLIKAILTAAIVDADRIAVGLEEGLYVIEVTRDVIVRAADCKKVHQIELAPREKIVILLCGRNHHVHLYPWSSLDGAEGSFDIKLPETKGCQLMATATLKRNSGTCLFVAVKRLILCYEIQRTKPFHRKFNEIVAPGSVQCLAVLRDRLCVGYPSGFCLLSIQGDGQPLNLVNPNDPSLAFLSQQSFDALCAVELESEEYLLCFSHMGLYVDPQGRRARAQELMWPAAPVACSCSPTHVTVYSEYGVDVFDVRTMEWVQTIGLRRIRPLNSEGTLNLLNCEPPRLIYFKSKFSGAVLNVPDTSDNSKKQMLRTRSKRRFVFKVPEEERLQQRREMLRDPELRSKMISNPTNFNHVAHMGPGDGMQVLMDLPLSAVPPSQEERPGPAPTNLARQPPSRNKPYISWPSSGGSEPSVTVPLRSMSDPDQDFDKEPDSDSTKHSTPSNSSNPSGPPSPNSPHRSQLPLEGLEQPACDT
Text: as §1, §2

KIT = target: T4, KIT (Homo sapiens, UniProt P10721); test: KINOMEscan competition binding assay
T4 construct: purchased DiscoverX Corporation (Lead Hunter Discovery Services, KINOMEscan)
T4 sequence (P10721 26-976): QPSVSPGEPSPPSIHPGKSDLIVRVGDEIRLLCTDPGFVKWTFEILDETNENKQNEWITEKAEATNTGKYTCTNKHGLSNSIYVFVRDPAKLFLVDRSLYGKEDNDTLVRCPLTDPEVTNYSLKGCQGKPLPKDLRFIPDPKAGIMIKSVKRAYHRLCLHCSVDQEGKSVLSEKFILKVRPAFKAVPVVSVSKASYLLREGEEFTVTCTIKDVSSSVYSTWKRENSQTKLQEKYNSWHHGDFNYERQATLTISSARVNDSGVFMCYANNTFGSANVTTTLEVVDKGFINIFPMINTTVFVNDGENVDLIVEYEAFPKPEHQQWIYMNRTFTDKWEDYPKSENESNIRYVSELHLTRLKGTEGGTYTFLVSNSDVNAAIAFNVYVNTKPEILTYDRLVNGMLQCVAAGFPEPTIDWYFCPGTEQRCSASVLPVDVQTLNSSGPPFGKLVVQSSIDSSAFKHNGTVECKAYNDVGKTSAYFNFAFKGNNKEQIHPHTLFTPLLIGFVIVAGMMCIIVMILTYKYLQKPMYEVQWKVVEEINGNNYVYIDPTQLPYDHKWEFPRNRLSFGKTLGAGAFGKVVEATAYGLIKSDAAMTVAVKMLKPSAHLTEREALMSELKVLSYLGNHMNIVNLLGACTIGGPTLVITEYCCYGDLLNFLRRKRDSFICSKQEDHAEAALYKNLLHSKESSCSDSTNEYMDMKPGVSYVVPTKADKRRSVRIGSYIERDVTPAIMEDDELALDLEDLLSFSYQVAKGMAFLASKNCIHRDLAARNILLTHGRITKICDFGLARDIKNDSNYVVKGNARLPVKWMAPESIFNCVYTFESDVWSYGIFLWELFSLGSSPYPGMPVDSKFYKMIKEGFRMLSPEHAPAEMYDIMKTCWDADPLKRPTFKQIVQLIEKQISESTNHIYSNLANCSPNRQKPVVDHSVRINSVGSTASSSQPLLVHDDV
Text: as §1, §2

CDK8 = target: T5, CDK8 (Homo sapiens, UniProt P49336); test: KINOMEscan competition binding assay; details: CDK8, 10 µM
T5 construct: purchased DiscoverX Corporation (Lead Hunter Discovery Services, KINOMEscan)
T5 sequence (P49336 whole entry): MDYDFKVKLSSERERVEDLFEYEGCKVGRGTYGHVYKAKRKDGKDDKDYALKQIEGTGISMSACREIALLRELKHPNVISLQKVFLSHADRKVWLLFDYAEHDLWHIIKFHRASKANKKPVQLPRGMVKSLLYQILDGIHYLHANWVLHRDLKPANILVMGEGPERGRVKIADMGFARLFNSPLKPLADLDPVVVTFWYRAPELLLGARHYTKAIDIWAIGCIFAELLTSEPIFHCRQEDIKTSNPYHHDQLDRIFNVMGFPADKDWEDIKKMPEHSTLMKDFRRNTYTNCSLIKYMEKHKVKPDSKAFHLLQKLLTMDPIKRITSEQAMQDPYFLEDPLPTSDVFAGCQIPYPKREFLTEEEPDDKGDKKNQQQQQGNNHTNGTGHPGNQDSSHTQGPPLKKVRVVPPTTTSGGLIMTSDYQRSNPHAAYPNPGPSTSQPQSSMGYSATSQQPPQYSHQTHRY
Text: as §1, §2

CDK9 = target: T6, CDK9 (Homo sapiens, UniProt P50750); test: KINOMEscan competition binding assay; details: CDK9, 10 µM
T6 construct: purchased DiscoverX Corporation (Lead Hunter Discovery Services, KINOMEscan)
T6 sequence (P50750 whole entry): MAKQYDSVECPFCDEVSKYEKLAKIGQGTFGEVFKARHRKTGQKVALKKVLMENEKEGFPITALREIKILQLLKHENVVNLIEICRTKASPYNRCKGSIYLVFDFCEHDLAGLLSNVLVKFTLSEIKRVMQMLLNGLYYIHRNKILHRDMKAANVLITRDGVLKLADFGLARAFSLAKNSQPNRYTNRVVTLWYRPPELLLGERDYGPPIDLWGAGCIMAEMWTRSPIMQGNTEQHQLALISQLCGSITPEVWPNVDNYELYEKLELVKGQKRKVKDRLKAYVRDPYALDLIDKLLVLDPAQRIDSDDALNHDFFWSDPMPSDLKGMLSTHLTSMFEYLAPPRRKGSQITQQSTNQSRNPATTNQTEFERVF
Text: as §1, §2

O=C1N/C(=N\CCc2ccccc2)S/C1=C/c1c[nH]c2ncccc12 [DJ4]
G2/M cell population (A549 lung cancer cells; 2.5 µM): 31% | G2/M cell population (A549 lung cancer cells; 5 µM): 42% | G2/M cell population (A549 lung cancer cells; 10 µM): 45% | inhibition at 10 µM (CDK14): > 98% | inhibition at 10 µM (CDK7): > 98% | inhibition at 10 µM (MRCK2): > 98% | inhibition at 10 µM (KIT): > 98% | inhibition at 10 µM (CDK8): > 98% | inhibition at 10 µM (CDK9): > 98%
